Patent publication US20110301194A1, “Method for Determining Treatment Efficacy” (ArQule, Inc., priority 2010, published 2011)

Test system: various cancers
Test: Anti-proliferative effect of combinations, in vitro and in vivo
Source text: These cancers include, but are not limited to, lung cancer, small cell lung cancer, non-small cell lung cancer, colon cancer, breast cancer, pancreatic cancer, prostate cancer, renal cancer, cervical cancer, brain cancer, gastric/stomach cancer, uterine cancer, intestinal cancer, hepatic cancer, chronic myelogenous leukemia, melanoma, ovarian cancer, translocation-associated renal cell carcinoma (RCC), alveolar soft part sarcoma (ASPS), clear cell sarcoma (CCS), and hepatocellular carcinoma. The anti-proliferative effects of these combinational treatments are increased/enhanced in cell proliferative disorders and cancers in which the effected cells constitutively express or over-express c-Met. In addition, synergistic anti-proliferative effects are shown by (−)-trans-3-(5,6-dihydro-4H-pyrrolo[3,2,1-ij]quinolin-1-yl)-4-(1H-indol-3-yl) pyrrolidine-2,5-dione in combination with sorafenib in breast cancer, cervical cancer, lung cancer, small cell lung cancer, non-small cell lung cancer, melanoma, colon cancer, pancreatic cancer, renal cancer and gastric/stomach cancer; by (−)-trans-3-(5,6-dihydro-4H-pyrrolo[3,2,1-ij]quinolin-1-yl)-4-(1H-indol-3-yl)pyrrolidine-2,5-dione in combination with sunitinib in gastric/stomach cancer; by (−)-trans-3-(5,6-dihydro-4H-pyrrolo[3,2,1-ij]quinolin-1-yl)-4-(1H-indol-3-yl)pyrrolidine-2,5-dione in combination with erlotinib in lung cancer, small cell lung cancer, non-small cell lung cancer and colon cancer; and by (−)-trans-3-(5,6-dihydro-4H-pyrrolo[3,2,1-ij]quinolin-1-yl)-4-(1H-indol-3-yl)pyrrolidine-2,5-dione in combination with cisplatin in pancreatic cancer.

## O=C1NC(=O)[C@@H](c2cn3c4c(cccc24)CCC3)[C@@H]1c1c[nH]c2ccccc12 [Agent A, (−)-trans-3-(5,6-dihydro-4H-pyrrolo[3,2,1-ij]quinolin-1-yl)-4-(1H-indol-3-yl)pyrrolidine-2,5-dione]
breast, cervical, lung, small cell lung, non-small cell lung cancer, melanoma, colon, pancreatic, renal and gastric/stomach cancer
  anti-proliferative effects in combination with sorafenib: synergistic
gastric/stomach cancer
  anti-proliferative effects in combination with sunitinib: synergistic
In combination with sorafenib, sunitinib, erlotinib, gefitinib, cisplatin, carboplatin or capecitabine, various cancers, in vitro and in vivo
  anti-proliferative effect in combination: at least an additive
lung, small cell lung, non-small cell lung and colon cancer
  anti-proliferative effects in combination with erlotinib: synergistic
Pancreatic cancer
  anti-proliferative effects in combination with cisplatin: synergistic
